Laboratory results from patent EP0238060B1, “Cephalosporin derivatives, processes for their preparation and antibacterial agents” (Banyu Pharmaceutical Co., Ltd., priority 1986, dated 1987).
Values after ≈ are worked out from the molar mass of the structure shown. Where two headings read alike, the source gives them in different places.

What was measured:
Test in all cases: In vitro antibacterial activity, agar plate dilution method (MIC)
Ps.maltophilia GN 12873 = type: cell-based, Pseudomonas maltophilia; conditions: Stenotrophomonas maltophilia, GN12873; Ps.maltophilia GN 12873 (β-Lactamase-producing strain); Mueller Hinton agar, inoculum 10⁶ CFU/ml, 37°C, 16 hours; read-out: Minimum Inhibitory Concentration (MIC: µg/ml)
Method: (§1) The in vitro antibacterial activities of the compounds of the present invention against various microorganisms, were measured by the following agar plate dilution method. One platinum loopfull of each test microorganism incubated overnight in Mueller Hinton broth, was inoculated to Mueller Hinton agar (inoculum size: l0⁶ CFU/ml). Such culture media containing various antibiotics in various concentrations were prepared. After incubation at 37°C for l6 hours, the minimum inhibitory concentrations (MIC: µg/ml) were measured. As comparative compounds, Cefotaxime, Ceftazidime and the compounds of Reference Examples l to 4 were employed.

Ps.cepacia 23 = type: cell-based, Pseudomonas cepacia; conditions: Burkholderia cepacia; Ps.cepacia 23; Mueller Hinton agar, inoculum 10⁶ CFU/ml, 37°C, 16 hours; read-out: Minimum Inhibitory Concentration (MIC: µg/ml)
Method: as §1

Ps.aeruginosa AK 109 = type: cell-based; conditions: Pseudomonas aeruginosa, AK109; Ps.aeruginosa AK 109; Mueller Hinton agar, inoculum 10⁶ CFU/ml, 37°C, 16 hours; read-out: Minimum Inhibitory Concentration (MIC: µg/ml)
Method: as §1

P.vulgaris No. 33 = type: cell-based; conditions: Proteus vulgaris; P.vulgaris No. 33 (β-Lactamase-producing strain); Mueller Hinton agar, inoculum 10⁶ CFU/ml, 37°C, 16 hours; read-out: Minimum Inhibitory Concentration (MIC: µg/ml)
Method: as §1

S.marcescens IAM 1184 = type: cell-based; conditions: Serratia marcescens, IAM1184; S.marcescens IAM 1184; Mueller Hinton agar, inoculum 10⁶ CFU/ml, 37°C, 16 hours; read-out: Minimum Inhibitory Concentration (MIC: µg/ml)
Method: as §1

M.luteus ATCC9341 = type: cell-based; conditions: Micrococcus luteus; M.luteus ATCC9341; Mueller Hinton agar, inoculum 10⁶ CFU/ml, 37°C, 16 hours; read-out: Minimum Inhibitory Concentration (MIC: µg/ml)
Method: as §1

S.aureus 209P NIHJ-JC1 = type: cell-based; conditions: Staphylococcus aureus; S.aureus 209P NIHJ-JC1; Mueller Hinton agar, inoculum 10⁶ CFU/ml, 37°C, 16 hours; read-out: Minimum Inhibitory Concentration (MIC: µg/ml)
Method: as §1

K.oxytoca GN10650 = type: cell-based; conditions: Klebsiella oxytoca; K.oxytoca GN10650 (β-Lactamase-producing strain); Mueller Hinton agar, inoculum 10⁶ CFU/ml, 37°C, 16 hours; read-out: Minimum Inhibitory Concentration (MIC: µg/ml)
Method: as §1

S.aureus BB5703 = type: cell-based; conditions: Staphylococcus aureus; S.aureus BB5703; Mueller Hinton agar, inoculum 10⁶ CFU/ml, 37°C, 16 hours; read-out: Minimum Inhibitory Concentration (MIC: µg/ml)
Method: as §1

C.freundii GN346 = type: cell-based; conditions: Citrobacter freundii; C.freundii GN346 (β-Lactamase-producing strain); Mueller Hinton agar, inoculum 10⁶ CFU/ml, 37°C, 16 hours; read-out: Minimum Inhibitory Concentration (MIC: µg/ml)
Method: as §1

S.marcescens No. 16-2 = type: cell-based; conditions: Serratia marcescens, NO.162; S.marcescens No. 16-2 (β-Lactamase-producing strain); Mueller Hinton agar, inoculum 10⁶ CFU/ml, 37°C, 16 hours; read-out: Minimum Inhibitory Concentration (MIC: µg/ml)
Method: as §1

E.coli GN5482 = type: cell-based; conditions: Escherichia coli; E.coli GN5482 (β-Lactamase-producing strain); Mueller Hinton agar, inoculum 10⁶ CFU/ml, 37°C, 16 hours; read-out: Minimum Inhibitory Concentration (MIC: µg/ml)
Method: as §1

Ps.aeruginosa AKR17 = type: cell-based; conditions: Pseudomonas aeruginosa; Ps.aeruginosa AKR17; Mueller Hinton agar, inoculum 10⁶ CFU/ml, 37°C, 16 hours; read-out: Minimum Inhibitory Concentration (MIC: µg/ml)
Method: as §1

S.epidermidis IAM12012 = type: cell-based; conditions: Staphylococcus epidermidis; S.epidermidis IAM12012; Mueller Hinton agar, inoculum 10⁶ CFU/ml, 37°C, 16 hours; read-out: Minimum Inhibitory Concentration (MIC: µg/ml)
Method: as §1

C.freundii GN346/16 = type: cell-based; conditions: Citrobacter freundii; C.freundii GN346/16; Mueller Hinton agar, inoculum 10⁶ CFU/ml, 37°C, 16 hours; read-out: Minimum Inhibitory Concentration (MIC: µg/ml)
Method: as §1

E.cloacae Nek 39 = type: cell-based; conditions: Enterobacter cloacae, NEK39; E.cloacae Nek 39 (β-Lactamase-producing strain); Mueller Hinton agar, inoculum 10⁶ CFU/ml, 37°C, 16 hours; read-out: Minimum Inhibitory Concentration (MIC: µg/ml)
Method: as §1

E.coli NIHJ JC2 = type: cell-based; conditions: Escherichia coli, NIHJJC2; E.coli NIHJ JC2; Mueller Hinton agar, inoculum 10⁶ CFU/ml, 37°C, 16 hours; read-out: Minimum Inhibitory Concentration (MIC: µg/ml)
Method: as §1

M.morganii GN5407 = type: cell-based; conditions: Morganella morganii; M.morganii GN5407 (β-Lactamase-producing strain); Mueller Hinton agar, inoculum 10⁶ CFU/ml, 37°C, 16 hours; read-out: Minimum Inhibitory Concentration (MIC: µg/ml)
Method: as §1

E.coli CSH(RE45) = type: cell-based; conditions: Escherichia coli, 16 h, read-out: Minimum Inhibitory Concentration (MIC: µg/ml)
Method: as §1

E.coli CSH2 (RK1) = type: cell-based; conditions: Escherichia coli, 16 h, read-out: Minimum Inhibitory Concentration (MIC: µg/ml)
Method: as §1

S.aureus JS1 = type: cell-based; conditions: Staphylococcus aureus; S.aureus JS1 (β-Lactamase-producing strain); Mueller Hinton agar, inoculum 10⁶ CFU/ml, 37°C, 16 hours; read-out: Minimum Inhibitory Concentration (MIC: µg/ml)
Method: as §1

A.calcoaceticus No. 4 = type: cell-based; conditions: Acinetobacter calcoaceticus; A.calcoaceticus No. 4; Mueller Hinton agar, inoculum 10⁶ CFU/ml, 37°C, 16 hours; read-out: Minimum Inhibitory Concentration (MIC: µg/ml)
Method: as §1

K.pneumoniae No. 42 = type: cell-based; conditions: Klebsiella pneumoniae, read-out: Minimum Inhibitory Concentration (MIC: µg/ml)
Method: as §1

K.pneumoniae PCI-602 = type: cell-based; conditions: Klebsiella pneumoniae, PCI602; K.pneumoniae PCI-602; Mueller Hinton agar, inoculum 10⁶ CFU/ml, 37°C, 16 hours; read-out: Minimum Inhibitory Concentration (MIC: µg/ml)
Method: as §1

Ps.aeruginosa IFO3445 = type: cell-based; conditions: Pseudomonas aeruginosa; Ps.aeruginosa IFO3445; Mueller Hinton agar, inoculum 10⁶ CFU/ml, 37°C, 16 hours; read-out: Minimum Inhibitory Concentration (MIC: µg/ml)
Method: as §1

E.cloacae 963 = type: cell-based; conditions: Enterobacter cloacae; E.cloacae 963; Mueller Hinton agar, inoculum 10⁶ CFU/ml, 37°C, 16 hours; read-out: Minimum Inhibitory Concentration (MIC: µg/ml)
Method: as §1

P.vulgaris HX-19 = type: cell-based; conditions: Proteus vulgaris, HX19; P.vulgaris HX-19; Mueller Hinton agar, inoculum 10⁶ CFU/ml, 37°C, 16 hours; read-out: Minimum Inhibitory Concentration (MIC: µg/ml)
Method: as §1

| Compound | MIC (Ps.maltophilia GN 12873) [µg/mL] | MIC (Ps.cepacia 23) [µg/mL] | MIC (Ps.aeruginosa AK 109) [µg/mL] | MIC (P.vulgaris No. 33) [µg/mL] | MIC (S.marcescens IAM 1184) [µg/mL] | MIC (M.luteus ATCC9341) [µg/mL] | MIC (S.aureus 209P NIHJ-JC1) [µg/mL] | MIC (K.oxytoca GN10650) [µg/mL] | MIC (S.aureus BB5703) [µg/mL] | MIC (C.freundii GN346) [µg/mL] | MIC (S.marcescens No. 16-2) [µg/mL] | MIC (E.coli GN5482) [µg/mL] | MIC (Ps.aeruginosa AKR17) [µg/mL] | MIC (S.epidermidis IAM12012) [µg/mL] | MIC (C.freundii GN346/16) [µg/mL] | MIC (E.cloacae Nek 39) [µg/mL] | MIC (E.coli NIHJ JC2) [µg/mL] | MIC (M.morganii GN5407) [µg/mL] | MIC (E.coli CSH(RE45)) [µg/mL] | MIC (E.coli CSH2 (RK1)) [µg/mL] | further results |
| --- | --- | --- | --- | --- | --- | --- | --- | --- | --- | --- | --- | --- | --- | --- | --- | --- | --- | --- | --- | --- | --- |
| CC(C)(ON=C(C(=O)NC1C(=O)N2C(C(=O)[O-])=C(C[n+]3ccc4ccccc4c3)CSC12)c1csc(N)n1)C(=O)O (stereo not drawn) [Reference Ex. 1, sodium 7-[2-(2-aminothiazol-4-yl)-2-(l-carboxylato-l-methylethoxyimino)acetamido]-3-(2-isoquinolinio)methyl-3-cephem-4-carboxylate, reference compound] | 12.5 | 6.25 | 3.12 | 0.1 | 0.05 | 0.78 | 6.25 | 0.2 | 25 | 50 | 1.56 | 0.78 | 100 | 1.56 | 0.2 | 1.56 | 0.2 | 0.05 | 0.1 | 0.05 | MIC (S.aureus JS1): 50 µg/mL; MIC (A.calcoaceticus No. 4): 25 µg/mL; MIC (K.pneumoniae No. 42; K.pneumoniae No. 42 (β-Lactamase-producing strain), Mueller Hinton agar, inoculum 10⁶ CFU/ml, 37°C, 16 hours): 0.39 µg/mL; MIC (K.pneumoniae PCI-602): 0.0125 µg/mL; MIC (Ps.aeruginosa IFO3445): 3.12 µg/mL; MIC (E.cloacae 963): 0.2 µg/mL; MIC (P.vulgaris HX-19): 0.0125 µg/mL |
| CO/N=C(\C(=O)NC1C(=O)N2C(C(=O)[O-])=C(C[n+]3ccc4cc(OC(C)=O)c(OC(C)=O)cc4c3)CSC12)c1csc(N)n1 (stereo not drawn) [Ex. 8, 3-(6,7-diacetoxy-2-isoquinolino)methyl-7-[2-(2-aminothiazol-4-yl)-2-methoxyiminoacetamido]-3-cephem-4-carboxylate] | > 100 | 0.2 (≈ 0.312 µM) | 0.78 (≈ 1.22 µM) | 0.1 (≈ 0.156 µM) | 0.025 (≈ 0.039 µM) | 0.78 (≈ 1.22 µM) | 6.25 (≈ 9.76 µM) | 0.2 (≈ 0.312 µM) | 12.5 (≈ 19.5 µM) | 50 (≈ 78 µM) | 1.56 (≈ 2.44 µM) | 0.78 (≈ 1.22 µM) | 100 (≈ 156 µM) | 3.12 (≈ 4.87 µM) | 0.78 (≈ 1.22 µM) | 0.2 (≈ 0.312 µM) | 0.1 (≈ 0.156 µM) | 0.05 (≈ 0.078 µM) | 0.1 (≈ 0.156 µM) | 0.0125 (≈ 0.0195 µM) | MIC (S.aureus JS1): 50 µg/mL (≈ 78 µM); MIC (A.calcoaceticus No. 4): 0.2 µg/mL (≈ 0.312 µM); MIC (K.pneumoniae No. 42; NO.42, 16 h): 0.0125 µg/mL (≈ 0.0195 µM); MIC (K.pneumoniae PCI-602): < 0.006 µg/mL; MIC (Ps.aeruginosa IFO3445): 0.78 µg/mL (≈ 1.22 µM); MIC (E.cloacae 963): 0.025 µg/mL (≈ 0.039 µM); MIC (P.vulgaris HX-19): 0.025 µg/mL (≈ 0.039 µM) |
